Reference: patent publication US11298363B2, “Triazolobenzazepines as vasopressin V1a receptor antagonists” (RICHTER GEDEON NYRT., priority 2017, dated 2022)
Values belong to the compound of their own block, whether it stands above or below them.

Columns and labels:
[1] = molecular target: T1, human vasopressin V1a receptor (Homo sapiens, UniProt P37288); experiment: Functional assay on human vasopressin V1a receptor expressing cell line (intracellular Ca2+ fluorescence); format: cell-based; conditions: 1321N1 cells, (Arg8)-vasopressin at EC80; read-out: IC50 (nM) on hV1a cell line
T1 sequence (P37288 whole entry): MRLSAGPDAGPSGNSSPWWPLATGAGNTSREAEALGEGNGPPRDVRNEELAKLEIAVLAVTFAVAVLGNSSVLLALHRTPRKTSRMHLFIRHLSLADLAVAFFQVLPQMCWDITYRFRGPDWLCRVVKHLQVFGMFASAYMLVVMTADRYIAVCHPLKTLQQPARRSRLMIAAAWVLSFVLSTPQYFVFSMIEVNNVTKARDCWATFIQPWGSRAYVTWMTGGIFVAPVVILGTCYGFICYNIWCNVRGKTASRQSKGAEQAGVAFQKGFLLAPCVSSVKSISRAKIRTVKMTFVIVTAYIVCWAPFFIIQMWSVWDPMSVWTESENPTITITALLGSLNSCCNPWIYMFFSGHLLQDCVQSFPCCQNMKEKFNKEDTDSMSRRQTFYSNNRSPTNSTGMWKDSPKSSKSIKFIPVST

[2] = molecular target: T1, human vasopressin V1a receptor; experiment: Human vasopressin V1a receptor binding assay; conditions: 1321N1 cell membranes, [3H]vasopressin; read-out: Ki (nM) on hV1a cell line
In short: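 Ki values come from IC50 via Cheng-Prusoff (KD from prior Scatchard), averaged over at least two independent runs. Human V1a membranes were incubated with radioligand 60 minutes at 27° C., bound ligand collected by filtration; (Arg^8)-vasopressin at 1.2×10^−6 M defined non-specific binding.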

SMILES: O=C(N[C@@H]1Cc2cc(Cl)ccc2-n2c(nnc2[C@H]2CC[C@H](Oc3ccccn3)CC2)C1)C1CCC1 [Example 125, N-{(5R)-8-chloro-1-[trans-4-(pyridin-2-yloxy)cyclohexyl]-5,6-dihydro-4H-[1,2,4]triazolo[4,3-a][1]benzazepin-5-yl}cyclobutanecarboxamide]
IC50 [1]: 2.3 nM
Ki [2]: 0.8 nM

SMILES: CCC(C)N[C@H]1Cc2cc(Cl)ccc2-n2c(nnc2[C@H]2CC[C@H](Oc3ccccn3)CC2)C1 (some centres unmarked) [Example 128]
IC50 [1]: 14 nM
Ki [2]: 2 nM

SMILES: CC(C)N1CC[C@]2(CC[C@H](c3nnc4n3-c3ccc(Cl)cc3CC3(C4)OCCO3)CC2)C1=O [Example 129, (5s,8s)-8-(8′-chloro-4′H,6′H-spiro[1,3-dioxolane-2,5-[1,2,4]triazolo[4,3-a][1]benzazepin]-1′-yl)-2-(propan-2-yl)-2-azaspiro[4.5]decan-1-one]
IC50 [1]: 20 nM
Ki [2]: 0.5 nM

SMILES: COC1Cc2cc(Cl)ccc2-n2c(nnc2[C@H]2CC[C@H](N3CCOCC3)CC2)C1 (stereo partly drawn) [Example 130, 8-chloro-5-methoxy-1-[trans-4-(morpholin-4-yl)cyclohexyl]-5,6-dihydro-4H-[1,2,4]triazolo[4,3-a][1]benzazepine]
IC50 [1]: 6.1 nM
Ki [2]: 2.4 nM

SMILES: COC1Cc2cc(F)ccc2-n2c(nnc2[C@H]2CC[C@H](Oc3ccccn3)CC2)C1 (stereo partly drawn) [Example 134, 8-fluoro-5-methoxy-1-[trans-4-(pyridin-2-yloxy)cyclohexyl]-5,6-dihydro-4H-[1,2,4]triazolo[4,3-a][1]benzazepine]
IC50 [1]: 1.5 nM
Ki [2]: 0.2 nM

SMILES: CC(C)NC1Cc2cc(Cl)ccc2-n2c(nnc2C2CCN(c3ccccn3)CC2)C1 (stereo not drawn) [Example 135, 8-chloro-N-(propan-2-yl)-1-[l-(pyridin-2-yl)piperidin-4-yl]-5,6-dihydro-4H-[1,2,4]triazolo[4,3-a][1]benzazepin-5-amine]
IC50 [1]: 54 nM
Ki [2]: 2.9 nM

SMILES: OCCOC1Cc2cc(Cl)ccc2-n2c(nnc2[C@H]2CC[C@H](Oc3ccccn3)CC2)C1 (stereo partly drawn) [Example 136, 2-({8-chloro-1-[trans-4-(pyridin-2-yloxy)cyclohexyl]-5,6-dihydro-4H-[1,2,4]triazolo[4,3-a][1]benzazepin-5-yl}oxy)ethanol]
IC50 [1]: 1.6 nM
Ki [2]: 0.2 nM

SMILES: COC1Cc2cc(Cl)ccc2-n2c(nnc2C2CCN(C(=O)OC(C)(C)C)CC2)C1 (centres unmarked) [Example 140, Tert-butyl 4-(8-chloro-5-methoxy-5,6-dihydro-4H-[1,2,4]triazolo[4,3-a][1]benzazepin-1-yl)piperidine-1-carboxylate]
IC50 [1]: 57 nM
Ki [2]: 2.4 nM

SMILES: CC(C)(C)OC(=O)NC1Cc2cc(F)ccc2-n2c(nnc2[C@H]2CC[C@H](Oc3ccccn3)CC2)C1 (stereo partly drawn) [Example 143, Tert-butyl {8-fluoro-1-[trans-4-(pyridin-2-yloxy)cyclohexyl]-5,6-dihydro-4H-[1,2,4]triazolo[4,3-a][1]benzazepin-5-yl}carbamate]
IC50 [1]: 156 nM
Ki [2]: 5 nM

SMILES: NC1Cc2ccccc2-n2c(nnc2[C@H]2CC[C@H](Oc3ccccn3)CC2)C1 (stereo partly drawn) [Example 144, 1-[trans-4-(pyridin-2-yloxy)cyclohexyl]-5,6-dihydro-4H-[1,2,4]triazolo[4,3-a][1]benzazepin-5-amine]
IC50 [1]: 168 nM
Ki [2]: 34 nM

SMILES: NC1Cc2cc(F)ccc2-n2c(nnc2[C@H]2CC[C@H](Oc3ccccn3)CC2)C1 (stereo partly drawn) [Example 145, 8-fluoro-1-[trans-4-(pyridin-2-yloxy)cyclohexyl]-5,6-dihydro-4H-[1,2,4]triazolo[4,3-a][1]benzazepin-5-amine]
IC50 [1]: 47 nM
Ki [2]: 12.7 nM

SMILES: CC(C)NC1Cc2cc(F)ccc2-n2c(nnc2[C@H]2CC[C@H](Oc3ccccn3)CC2)C1 (stereo partly drawn) [Example 146, 8-fluoro-N-(propan-2-yl)-1-[trans-4-(pyridin-2-yloxy)cyclohexyl]-5,6-dihydro-4H-[1,2,4]triazolo[4,3-a][1]benzazepin-5-amine]
IC50 [1]: 78 nM
Ki [2]: 3.2 nM

SMILES: CN(C)C1Cc2cc(F)ccc2-n2c(nnc2[C@H]2CC[C@H](Oc3ccccn3)CC2)C1 (stereo partly drawn) [Example 147, 8-fluoro-N,N-dimethyl-1-[trans-4-(pyridin-2-yloxy)cyclohexyl]-5,6-dihydro-4H-[1,2,4]triazolo[4,3-a][1]benzazepin-5-amine]
IC50 [1]: 9.4 nM
Ki [2]: 1 nM

SMILES: CN(C)C1Cc2ccccc2-n2c(nnc2[C@H]2CC[C@H](Oc3ccccn3)CC2)C1 (some centres unmarked) [Example 148]
IC50 [1]: 26 nM
Ki [2]: 1.2 nM

SMILES: Fc1ccc2c(c1)CC1(Cc3nnc([C@H]4CC[C@H](C(F)(F)F)CC4)n3-2)OCCO1 [Example 149, 8′-fluoro-1′-[trans-4-(trifluoromethyl)cyclohexyl]-4′H,6′H-spiro[1,3-dioxolane-2,5′-[1,2,4]triazolo[4,3-a][1]benzazepine]]
IC50 [1]: 15 nM
Ki [2]: 0.8 nM

Results, then the compound that gave them:

IC50 [1]: 17 nM
Ki [2]: 2.8 nM
SMILES: Clc1ccc2c(c1)C[C@H](N1CCCCC1)Cc1nnc([C@H]3CC[C@H](Oc4ccccn4)CC3)n1-2 [Example 127, (5S)-8-chloro-5-(piperidin-1-yl)-1-[trans-4-(pyridin-2-yloxy)cyclohexyl]-5,6-dihydro-4H-[1,2,4]triazolo[4,3-a][1]benzazepine]

IC50 [1]: 0.7 nM
Ki [2]: 0.3 nM
SMILES: CCOC1Cc2cc(Cl)ccc2-n2c(nnc2[C@H]2CC[C@H](Oc3ccccn3)CC2)C1 (stereo partly drawn) [Example 131, 8-chloro-5-ethoxy-1-[trans-4-(pyridin-2-yloxy)cyclohexyl]-5,6-dihydro-4H-[1,2,4]triazolo[4,3-a][1]benzazepine]

IC50 [1]: 9.2 nM
Ki [2]: 0.7 nM
SMILES: CCN(CC)[C@H]1Cc2cc(Cl)ccc2-n2c(nnc2[C@H]2CC[C@H](Oc3ccccn3)CC2)C1 [Example 137, (5S)-8-chloro-N,N-diethyl-1-[trans-4-(pyridin-2-yloxy)cyclohexyl]-5,6-dihydro-4H-[1,2,4]triazolo[4,3-a][1]benzazepin-5-amine]

IC50 [1]: 5 nM
Ki [2]: 0.2 nM
SMILES: CC(C)N(C)C1Cc2cc(Cl)ccc2-n2c(nnc2[C@H]2CC[C@H](Oc3ccccn3)CC2)C1 (stereo partly drawn) [Example 138, 8-chloro-N-methyl-N-(propan-2-yl)-1-[trans-4-(pyridin-2-yloxy)cyclohexyl]-5,6-dihydro-4H-[1,2,4]triazolo[4,3-a][1]benzazepin-5-amine]

IC50 [1]: 130 nM
Ki [2]: 9.3 nM
SMILES: CC(C)(C)OC(=O)NC1Cc2cc(Cl)ccc2-n2c(nnc2N2CCN(c3ncccc3Cl)CC2)C1 (centres unmarked) [Example 139, Tert-butyl {8-chloro-1-[4-(3-chloropyridin-2-yl)piperazin-1-yl]-5,6-dihydro-4H-[1,2,4]triazolo[4,3-a][1]benzazepin-5-yl}carbamate]

IC50 [1]: 8.9 nM
Ki [2]: 0.7 nM
SMILES: CC(C)[C@@H](N)C(=O)N[C@@H]1Cc2cc(Cl)ccc2-n2c(nnc2[C@H]2CC[C@H](Oc3ccccn3)CC2)C1 [Example 141, N-{(5R)-8-chloro-1-[trans-4-(pyridin-2-yloxy)cyclohexyl]-5,6-dihydro-4H-[1,2,4]triazolo[4,3-a][1]benzazepin-5-yl}-D-valinamide]

IC50 [1]: 225 nM
Ki [2]: 14.3 nM
SMILES: CC(C)(C)OC(=O)NC1Cc2ccccc2-n2c(nnc2[C@H]2CC[C@H](Oc3ccccn3)CC2)C1 (stereo partly drawn) [Example 142, Tert-butyl {1-[trans-4-(pyridin-2-yloxy)cyclohexyl]-5,6-dihydro-4H-[1,2,4]triazolo[4,3-a][1]benzazepin-5-yl}carbamate]
